36 compounds from the SangsterLogP compilation can be followed below.

One may read the logP as a log measure of how a compound divides between an organic and an aqueous phase. In turn, `Cc1cccc(C(=O)N(C(C)C)C(C)C)c1` came in with a lipophilicity (logP) of 3.

`Cc1ccc(C(=O)N2CCCCC2)cc1` registered a log partition coefficient (logP) of 2.8.

In the case of `CCNC(=O)c1cccc(C)c1`, the log partition coefficient (logP) came to 1.32.

`COc1ccc(C(=O)N(C(C)C)C(C)C)cc1` came in with a lipophilicity (logP) of 2.8.

Turning to `CCNC(=O)CC1CCCCC1`, the logP amounted to 2.28.

Consider `O=C(c1ccccc1)N1CCCCC1`, for which the logP came to 2.2.

Compound `COc1ccc(C(=O)N2CCCCC2)cc1` gave a logP of 2.4.

Compound `O=C(c1ccccc1Cl)N1CCCCC1` displayed a logP of 2.8.

On to `CCNC(=O)Cc1ccccc1`, for which the logP worked out at 1.

With `CC(C)N(C(=O)Cc1ccccc1)C(C)C`, the logP was found to be 3.1.

The compound `CN(C)C(=O)Cc1ccccc1` came in with a logP of 1.48.

For `CCNC(=O)c1ccccc1OCC`, the logP is 2.4.

`CN(C)C(=O)CC1CCCCC1` came in with a logP of 2.19.

Compound `CCN(CC)C(=O)c1ccc(OC)cc1` gave a logP of 2.5.

As for `CC(C)N(C(=O)c1ccccc1Cl)C(C)C`, the logP came to 3.

As to `Cc1cccc(C(=O)N2CCCCC2)c1`, the logP turned out to be 2.6.

`CCOc1ccccc1C(=O)N(C(C)C)C(C)C` registered a logP of 3.

`CCN(CC)C(=O)c1ccccc1`: the logP amounted to 1.8.

In turn, `Cc1ccc(C(=O)N(C)C)cc1` had a log partition coefficient (logP) of 1.72.

Compound `CN(C)C(=O)c1ccccc1` had a logP of 1.2.

Turning to `O=C(Cc1ccccc1)N1CCCCC1`, the logP was found to be 2.44.

The compound `CCNC(=O)c1ccc(OC)cc1` showed a logP of 1.14.

In turn, `CCN(CC)C(=O)c1ccc(C)cc1` registered a logP of 2.38.

For the compound `CCOc1ccccc1C(=O)N(CC)CC`, the lipophilicity (logP) came to 2.5.

`Cc1ccc(C(=O)N(C(C)C)C(C)C)cc1` came in with a log partition coefficient (logP) of 2.5.

`CCN(CC)C(=O)c1ccccc1Cl`: the logP worked out at 2.1.

As to `CCN(CC)C(=O)c1cccc(C)c1`, the logP came to 2.34.

In turn, `Cc1cccc(C(=O)N(C)C)c1` showed a logP of 1.6.

In turn, `CCN(CC)C(=O)CC1CCCCC1` had a logP of 3.12.

In turn, `CN(C)C(=O)c1ccccc1Cl` had a logP of 1.54.

For `CC(C)N(C(=O)c1ccccc1)C(C)C`, the logP amounted to 2.5.

Regarding `CCOc1ccccc1C(=O)N1CCCCC1`, the logP is 2.6.

`O=C(CC1CCCCC1)N1CCCCC1`: the logP was 3.2.

`CCN(CC)C(=O)Cc1ccccc1` showed a logP of 2.4.

`CCNC(=O)c1ccc(C)cc1`: the logP is 1.38.

In turn, `CCNC(=O)c1ccccc1Cl` came in with a logP of 0.95.
